Assay results taken from PMC7846792, “Perception of a divergent family of phytocytokines by the Arabidopsis receptor kinase MIK2” (Nature Communications, 2021).
No end group written: not given here.

Legend:
A. thaliana seedlings = assay: Seedling growth inhibition (fresh weight); assay type: in vivo, Arabidopsis thaliana; settings: mock mean = 1
Method: Four-day-old seedlings growing on MS plates were transferred individually into separate wells of transparent 48-well tissue culture plates (Greiner Bio-One) containing 500 μL of liquid MS media with/without elicitor addition. The plates were then transferred back to the growth conditions for an additional 10 days before seedlings were blot-dried and weighed.

[1] = biological target: MIK2–SCOOP12 complex (MIK2 ectodomain with SCOOP12 peptide, formed beforehand in the ITC cell) (Arabidopsis thaliana) (UniProt Q8VZG8); assay: ITC; 200 µM BAK1 ectodomain titrated onto the MIK2–SCOOP12 complex in the cell; 25 °C; 20 mM sodium citrate pH 5.0, 150 mM NaCl; N fitted to 1

For GTGPSHSGHGGSS [SCOOP9], the “Seedling fresh weight (Fig3C), relative to mock” value (A. thaliana seedlings; Col-0, 1 μM, replicate 1) was 0.7762, the “Seedling fresh weight (Fig3C), relative to mock” value (A. thaliana seedlings; Col-0, 1 μM, replicate 2) was 0.8462 and the “Seedling fresh weight (Fig3C), relative to mock” value (A. thaliana seedlings; Col-0, 1 μM, replicate 3) was 0.6605. For the same molecule, the “Seedling fresh weight (Fig3C), relative to mock” value (A. thaliana seedlings; Col-0, 1 μM, replicate 4) was 0.7701, the “Seedling fresh weight (Fig3C), relative to mock” value (A. thaliana seedlings; Col-0, 1 μM, replicate 5) was 0.4809 and the “Seedling fresh weight (Fig3C), relative to mock” value (A. thaliana seedlings; Col-0, 1 μM, replicate 6) was 0.5418. The “Seedling fresh weight (Fig3C), relative to mock” value (A. thaliana seedlings; Col-0, 1 μM, replicate 7) was 0.6179, the “Seedling fresh weight (Fig3C), relative to mock” value (A. thaliana seedlings; Col-0, 1 μM, replicate 8) was 0.7457 and the “Seedling fresh weight (Fig3C), relative to mock” value (A. thaliana seedlings; Col-0, 1 μM, replicate 9) was 0.8066. The “Seedling fresh weight (Fig3C), relative to mock” value (A. thaliana seedlings; Col-0, 1 μM, replicate 10) was 0.831, the “Seedling fresh weight (Fig3C), relative to mock” value (A. thaliana seedlings; Col-0, 1 μM, replicate 11) was 0.7549 and the “Seedling fresh weight (Fig3C), relative to mock” value (A. thaliana seedlings; Col-0, 1 μM, replicate 12) was 0.7275. For the same molecule, the “Seedling fresh weight (Fig3C), relative to mock” value (A. thaliana seedlings; Col-0, 10 μM, replicate 1) was 0.06065, the “Seedling fresh weight (Fig3C), relative to mock” value (A. thaliana seedlings; Col-0, 10 μM, replicate 2) was 0.1274 and the “Seedling fresh weight (Fig3C), relative to mock” value (A. thaliana seedlings; Col-0, 10 μM, replicate 3) was 0.1304. For the same molecule, the “Seedling fresh weight (Fig3C), relative to mock” value (A. thaliana seedlings; Col-0, 10 μM, replicate 4) was 0.1061, the “Seedling fresh weight (Fig3C), relative to mock” value (A. thaliana seedlings; Col-0, 10 μM, replicate 5) was 0.1395 and the “Seedling fresh weight (Fig3C), relative to mock” value (A. thaliana seedlings; Col-0, 10 μM, replicate 6) was 0.08795. The “Seedling fresh weight (Fig3C), relative to mock” value (A. thaliana seedlings; Col-0, 10 μM, replicate 7) was 0.1759, the “Seedling fresh weight (Fig3C), relative to mock” value (A. thaliana seedlings; Col-0, 10 μM, replicate 8) was 0.2365 and the “Seedling fresh weight (Fig3C), relative to mock” value (A. thaliana seedlings; Col-0, 10 μM, replicate 9) was 0.1395. For the same molecule, the “Seedling fresh weight (Fig3C), relative to mock” value (A. thaliana seedlings; Col-0, 10 μM, replicate 10) was 0.2032, the “Seedling fresh weight (Fig3C), relative to mock” value (A. thaliana seedlings; Col-0, 10 μM, replicate 11) was 0.1789 and the “Seedling fresh weight (Fig3C), relative to mock” value (A. thaliana seedlings; Col-0, 10 μM, replicate 12) was 0.1425. For the same molecule, the “Seedling fresh weight (Fig3C), relative to mock” value (A. thaliana seedlings; mik2-1, 1 μM, replicate 1) was 0.8374, the “Seedling fresh weight (Fig3C), relative to mock” value (A. thaliana seedlings; mik2-1, 1 μM, replicate 2) was 1.059 and the “Seedling fresh weight (Fig3C), relative to mock” value (A. thaliana seedlings; mik2-1, 1 μM, replicate 3) was 0.8173. The “Seedling fresh weight (Fig3C), relative to mock” value (A. thaliana seedlings; mik2-1, 1 μM, replicate 4) was 0.935, the “Seedling fresh weight (Fig3C), relative to mock” value (A. thaliana seedlings; mik2-1, 1 μM, replicate 5) was 0.9081 and the “Seedling fresh weight (Fig3C), relative to mock” value (A. thaliana seedlings; mik2-1, 1 μM, replicate 6) was 0.9484. For the same molecule, the “Seedling fresh weight (Fig3C), relative to mock” value (A. thaliana seedlings; mik2-1, 1 μM, replicate 7) was 1.0157, the “Seedling fresh weight (Fig3C), relative to mock” value (A. thaliana seedlings; mik2-1, 1 μM, replicate 8) was 1.056 and the “Seedling fresh weight (Fig3C), relative to mock” value (A. thaliana seedlings; mik2-1, 1 μM, replicate 9) was 0.972. For the same molecule, the “Seedling fresh weight (Fig3C), relative to mock” value (A. thaliana seedlings; mik2-1, 1 μM, replicate 10) was 1.002, the “Seedling fresh weight (Fig3C), relative to mock” value (A. thaliana seedlings; mik2-1, 1 μM, replicate 11) was 1.066 and the “Seedling fresh weight (Fig3C), relative to mock” value (A. thaliana seedlings; mik2-1, 1 μM, replicate 12) was 1.039. The “Seedling fresh weight (Fig3C), relative to mock” value (A. thaliana seedlings; mik2-1, 10 μM, replicate 1) was 0.8757, the “Seedling fresh weight (Fig3C), relative to mock” value (A. thaliana seedlings; mik2-1, 10 μM, replicate 2) was 0.9704 and the “Seedling fresh weight (Fig3C), relative to mock” value (A. thaliana seedlings; mik2-1, 10 μM, replicate 3) was 1.224. For the same molecule, the “Seedling fresh weight (Fig3C), relative to mock” value (A. thaliana seedlings; mik2-1, 10 μM, replicate 4) was 0.9062, the “Seedling fresh weight (Fig3C), relative to mock” value (A. thaliana seedlings; mik2-1, 10 μM, replicate 5) was 0.9941 and the “Seedling fresh weight (Fig3C), relative to mock” value (A. thaliana seedlings; mik2-1, 10 μM, replicate 6) was 0.8622. For the same molecule, the “Seedling fresh weight (Fig3C), relative to mock” value (A. thaliana seedlings; mik2-1, 10 μM, replicate 7) was 0.9772, the “Seedling fresh weight (Fig3C), relative to mock” value (A. thaliana seedlings; mik2-1, 10 μM, replicate 8) was 0.9028 and the “Seedling fresh weight (Fig3C), relative to mock” value (A. thaliana seedlings; mik2-1, 10 μM, replicate 9) was 0.94. The “Seedling fresh weight (Fig3C), relative to mock” value (A. thaliana seedlings; mik2-1, 10 μM, replicate 10) was 1.021, the “Seedling fresh weight (Fig3C), relative to mock” value (A. thaliana seedlings; mik2-1, 10 μM, replicate 11) was 0.9062 and the “Seedling fresh weight (Fig3C), relative to mock” value (A. thaliana seedlings; mik2-1, 10 μM, replicate 12) was 0.9298.

With ETPPSRSRRGGGG [SCOOP1] the “Seedling fresh weight (Fig3C), relative to mock” value (A. thaliana seedlings; Col-0, 1 μM, replicate 1) was 0.767, the “Seedling fresh weight (Fig3C), relative to mock” value (A. thaliana seedlings; Col-0, 1 μM, replicate 2) was 0.7214 and the “Seedling fresh weight (Fig3C), relative to mock” value (A. thaliana seedlings; Col-0, 1 μM, replicate 3) was 0.5418. The “Seedling fresh weight (Fig3C), relative to mock” value (A. thaliana seedlings; Col-0, 1 μM, replicate 4) was 0.6909, the “Seedling fresh weight (Fig3C), relative to mock” value (A. thaliana seedlings; Col-0, 1 μM, replicate 5) was 0.3379 and the “Seedling fresh weight (Fig3C), relative to mock” value (A. thaliana seedlings; Col-0, 1 μM, replicate 6) was 0.5266. The “Seedling fresh weight (Fig3C), relative to mock” value (A. thaliana seedlings; Col-0, 1 μM, replicate 7) was 0.5662, the “Seedling fresh weight (Fig3C), relative to mock” value (A. thaliana seedlings; Col-0, 1 μM, replicate 8) was 0.6453 and the “Seedling fresh weight (Fig3C), relative to mock” value (A. thaliana seedlings; Col-0, 1 μM, replicate 9) was 0.5753. For the same molecule, the “Seedling fresh weight (Fig3C), relative to mock” value (A. thaliana seedlings; Col-0, 1 μM, replicate 10) was 0.5996, the “Seedling fresh weight (Fig3C), relative to mock” value (A. thaliana seedlings; Col-0, 1 μM, replicate 11) was 0.6118 and the “Seedling fresh weight (Fig3C), relative to mock” value (A. thaliana seedlings; Col-0, 1 μM, replicate 12) was 0.4961. For the same molecule, the “Seedling fresh weight (Fig3C), relative to mock” value (A. thaliana seedlings; Col-0, 10 μM, replicate 1) was 0.2426, the “Seedling fresh weight (Fig3C), relative to mock” value (A. thaliana seedlings; Col-0, 10 μM, replicate 2) was 0.2002 and the “Seedling fresh weight (Fig3C), relative to mock” value (A. thaliana seedlings; Col-0, 10 μM, replicate 3) was 0.1668. For the same molecule, the “Seedling fresh weight (Fig3C), relative to mock” value (A. thaliana seedlings; Col-0, 10 μM, replicate 4) was 0.1698, the “Seedling fresh weight (Fig3C), relative to mock” value (A. thaliana seedlings; Col-0, 10 μM, replicate 5) was 0.06065 and the “Seedling fresh weight (Fig3C), relative to mock” value (A. thaliana seedlings; Col-0, 10 μM, replicate 6) was 0.1729. For the same molecule, the “Seedling fresh weight (Fig3C), relative to mock” value (A. thaliana seedlings; Col-0, 10 μM, replicate 7) was 0.1759, the “Seedling fresh weight (Fig3C), relative to mock” value (A. thaliana seedlings; Col-0, 10 μM, replicate 8) was 0.2305 and the “Seedling fresh weight (Fig3C), relative to mock” value (A. thaliana seedlings; Col-0, 10 μM, replicate 9) was 0.2092. For the same molecule, the “Seedling fresh weight (Fig3C), relative to mock” value (A. thaliana seedlings; Col-0, 10 μM, replicate 10) was 0.1607, the “Seedling fresh weight (Fig3C), relative to mock” value (A. thaliana seedlings; Col-0, 10 μM, replicate 11) was 0.2244 and the “Seedling fresh weight (Fig3C), relative to mock” value (A. thaliana seedlings; Col-0, 10 μM, replicate 12) was 0.2032. For the same molecule, the “Seedling fresh weight (Fig3C), relative to mock” value (A. thaliana seedlings; mik2-1, 1 μM, replicate 1) was 1.15, the “Seedling fresh weight (Fig3C), relative to mock” value (A. thaliana seedlings; mik2-1, 1 μM, replicate 2) was 1.076 and the “Seedling fresh weight (Fig3C), relative to mock” value (A. thaliana seedlings; mik2-1, 1 μM, replicate 3) was 1.026. The “Seedling fresh weight (Fig3C), relative to mock” value (A. thaliana seedlings; mik2-1, 1 μM, replicate 4) was 1.019, the “Seedling fresh weight (Fig3C), relative to mock” value (A. thaliana seedlings; mik2-1, 1 μM, replicate 5) was 1.076 and the “Seedling fresh weight (Fig3C), relative to mock” value (A. thaliana seedlings; mik2-1, 1 μM, replicate 6) was 0.9888. The “Seedling fresh weight (Fig3C), relative to mock” value (A. thaliana seedlings; mik2-1, 1 μM, replicate 7) was 1.049, the “Seedling fresh weight (Fig3C), relative to mock” value (A. thaliana seedlings; mik2-1, 1 μM, replicate 8) was 1.026 and the “Seedling fresh weight (Fig3C), relative to mock” value (A. thaliana seedlings; mik2-1, 1 μM, replicate 9) was 0.9619. For the same molecule, the “Seedling fresh weight (Fig3C), relative to mock” value (A. thaliana seedlings; mik2-1, 1 μM, replicate 10) was 0.9215, the “Seedling fresh weight (Fig3C), relative to mock” value (A. thaliana seedlings; mik2-1, 1 μM, replicate 11) was 0.9619 and the “Seedling fresh weight (Fig3C), relative to mock” value (A. thaliana seedlings; mik2-1, 1 μM, replicate 12) was 0.9922. For the same molecule, the “Seedling fresh weight (Fig3C), relative to mock” value (A. thaliana seedlings; mik2-1, 10 μM, replicate 1) was 1.089, the “Seedling fresh weight (Fig3C), relative to mock” value (A. thaliana seedlings; mik2-1, 10 μM, replicate 2) was 0.9298 and the “Seedling fresh weight (Fig3C), relative to mock” value (A. thaliana seedlings; mik2-1, 10 μM, replicate 3) was 0.9231. The “Seedling fresh weight (Fig3C), relative to mock” value (A. thaliana seedlings; mik2-1, 10 μM, replicate 4) was 0.9738, the “Seedling fresh weight (Fig3C), relative to mock” value (A. thaliana seedlings; mik2-1, 10 μM, replicate 5) was 0.9332 and the “Seedling fresh weight (Fig3C), relative to mock” value (A. thaliana seedlings; mik2-1, 10 μM, replicate 6) was 0.9028. For the same molecule, the “Seedling fresh weight (Fig3C), relative to mock” value (A. thaliana seedlings; mik2-1, 10 μM, replicate 7) was 1.008, the “Seedling fresh weight (Fig3C), relative to mock” value (A. thaliana seedlings; mik2-1, 10 μM, replicate 8) was 0.9704 and the “Seedling fresh weight (Fig3C), relative to mock” value (A. thaliana seedlings; mik2-1, 10 μM, replicate 9) was 1.085. The “Seedling fresh weight (Fig3C), relative to mock” value (A. thaliana seedlings; mik2-1, 10 μM, replicate 10) was 1.031, the “Seedling fresh weight (Fig3C), relative to mock” value (A. thaliana seedlings; mik2-1, 10 μM, replicate 11) was 0.9569 and the “Seedling fresh weight (Fig3C), relative to mock” value (A. thaliana seedlings; mik2-1, 10 μM, replicate 12) was 0.967.

B1: BAK1 ectodomain (residues 1–220) (domain or fragment)
chain: NAEGDALSALKNSLADPNKVLQSWDATLVTPCTWFHVTCNSDNSVTRVDLGNANLSGQLVMQLGQLPNLQYLELYSNNITGTIPEQLGNLTELVSLDLYLNNLSGPIPSTLGRLKKLRFLRLNNNSLSGEIPRSLTAVLTLQVLDLSNNPLTGDIPVNGSFSLFTPISFANTKLTPLPASPPPPISPTPPSPAGS
B1 gave a Kd [1] of 275 nM.
